Measured values from patent publication US8362022B2, “Selective subtype alpha 2 adrenergic agents and methods for use thereof” (Allergan, Inc., priority 2008, dated 2013).

Legend:
[1] = target: T1, Alpha 1A (Homo sapiens, UniProt P35348); assay: RSAT assay (Receptor Selection and Amplification Technology), Alpha 1A; type: cell-based; conditions: value in parentheses, ratio of maximal effect of drug to maximal effect of standard full agonist
T1 sequence (P35348 1-466): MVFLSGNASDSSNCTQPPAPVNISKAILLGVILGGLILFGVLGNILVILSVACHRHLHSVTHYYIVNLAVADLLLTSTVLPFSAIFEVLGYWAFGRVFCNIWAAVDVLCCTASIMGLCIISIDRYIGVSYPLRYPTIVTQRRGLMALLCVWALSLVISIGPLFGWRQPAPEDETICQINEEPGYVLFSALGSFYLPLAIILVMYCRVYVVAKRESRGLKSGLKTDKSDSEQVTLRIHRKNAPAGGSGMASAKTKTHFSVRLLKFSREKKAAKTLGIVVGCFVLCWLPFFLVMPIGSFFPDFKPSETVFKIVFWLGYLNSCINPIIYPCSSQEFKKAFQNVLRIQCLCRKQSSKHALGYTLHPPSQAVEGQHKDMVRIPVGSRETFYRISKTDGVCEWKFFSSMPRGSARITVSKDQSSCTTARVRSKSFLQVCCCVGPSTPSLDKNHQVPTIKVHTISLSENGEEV
Description: (§1) The RSAT assay measures a receptor-mediated loss of contact inhibition that results in selective proliferation of receptor-containing cells in a mixed population of confluent cells. The increase in cell number is assessed with an appropriate transfected marker gene such as β-galactosidase, the activity of which can be easily measured in a 96-well format. Receptors that activate the G protein, Gq, elicit this response. Alpha 2 receptors, which normally couple to Gi, activate the RSAT response when coexpressed with a hybrid Gq protein that has a Gi receptor recognition domain, called Gq/i5.
(§2) NIH-3T3 cells are plated at a density of 2×10^6 cells in 15 cm dishes and maintained in Dulbecco's modified Eagle's medium supplemented with 10% calf serum. One day later, cells are cotransfected by calcium phosphate precipitation with mammalian expression plasmids encoding p-SV-β-galactosidase (5-10 μg), receptor (1-2 μg) and G protein (1-2 μg). 40 μg salmon sperm DNA may also be included in the transfection mixture. […] Cells are thawed and 100 μl added to 100 μL aliquots of various concentrations of drugs in triplicate in 96-well dishes. Incubations continue 72-96 hr at 37° C. After washing with phosphate-buffered saline, β-galactosidase enzyme activity is determined by adding 200 μL of the chromogenic substrate (consisting of 3.5 mM o-nitrophenyl-β-D-galactopyranoside and 0.5% nonidet P-40 in phosphate buffered saline), incubating overnight at 30° C. and measuring optical density at 420 nm. The absorbance is a measure of enzyme activity, which depends on cell number and reflects a receptor-mediated cell proliferation. The efficacy or intrinsic activity is calculated as a ratio of the maximal effect of the drug to the maximal effect of a standard full agonist for each receptor subtype. Brimonidine, the chemical structure of which is shown below, is used as the standard agonist for the alpha 2B and alpha 2C receptors. […] NA stands for “not active” at concentrations less than 3-10 micromolar.

[2] = target: T2, alpha 2C receptor (Homo sapiens, UniProt P18825); assay: RSAT assay (Receptor Selection and Amplification Technology), Alpha 2C; type: cell-based; conditions: RSAT
T2 construct: expressed in transfected cells; host or cells: NIH-3T3
T2 sequence (P18825 1-462): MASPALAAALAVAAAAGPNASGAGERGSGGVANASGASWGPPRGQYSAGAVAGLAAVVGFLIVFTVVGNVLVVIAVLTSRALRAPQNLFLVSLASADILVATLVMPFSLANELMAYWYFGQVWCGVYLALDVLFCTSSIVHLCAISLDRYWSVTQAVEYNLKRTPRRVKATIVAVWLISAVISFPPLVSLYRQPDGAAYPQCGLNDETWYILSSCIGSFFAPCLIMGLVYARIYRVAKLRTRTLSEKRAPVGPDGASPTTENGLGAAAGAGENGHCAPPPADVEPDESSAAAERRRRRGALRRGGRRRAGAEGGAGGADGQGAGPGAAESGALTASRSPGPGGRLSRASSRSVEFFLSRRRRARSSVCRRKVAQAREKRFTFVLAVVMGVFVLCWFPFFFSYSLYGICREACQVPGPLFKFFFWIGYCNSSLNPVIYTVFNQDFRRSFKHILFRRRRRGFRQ
Description: as §1, §2

## Cc1cccc(C(Cc2cccnc2)/N=C2/NCCO2)c1C (stereo not drawn) [Compound 21, 1-(2,3-Dimethylphenyl)-N-(oxazolidin-2-ylidene)-2-(pyridin-3-yl)ethanamine]
[1]
  Intrinsic Activity efficacy Alpha 1A: 0.6
[2]; transfected NIH-3T3 cells with Gq/i5, NA = not active at concentrations less than 10 micromolar, read-out: potency nM (EC50) Alpha 2C
  EC50: 18 nM
[2]; value in parentheses, ratio of maximal effect to that of brimonidine
  Intrinsic Activity efficacy Alpha 2C: 0.4
